Counter-ions that a name gives are not always drawn. Like-named read-outs stand apart in the source and are kept apart here.
Columns and labels:
[1] = test system: CPV SD6 (New CPV-2a strain); assay: CPE-based antiviral inhibitor screening assay; format: cell-based, Canine parvovirus; details: for Percentage CPE inhibition (mean ± s.d.) / anti-CPV effect on F81 cells: 10 μM; for Percentage CPE inhibition (mean ± s.d.): cells treated with drug 1 hour prior to virus infection, MOI 0.076, 40 h postinfection; for anti-CPV effect on F81 cells: CPE-based screening assay
CPV [2] = assay: Time of addition study (percentage CPE inhibition); format: cell-based, Canine parvovirus; details: 10 μM; for Percentage CPE inhibition (mean ± s.d.): drug added 1 hour post virus infection, 40 h postinfection
CPV enteritis = test system: CPV enteritis; parameters: method as in earlier work; details: Oseltamivir-treated group; cited from earlier work
CPV [3] = assay: 50% antiviral efficacy concentration (EC50) assay, CPE-based; format: cell-based, Canine parvovirus; details: F81 cells pretreated 1 h, CPV MOI 0.076, 40 h
[4] = 50% cytotoxicity concentration (CC50) assay; format: cell-based, Feline; details: cat
[5] = test system: CPV variant SD6 (New CPV-2a strain); assay: Western blot of VP2 expression, variant SD6; format: cell-based, Canine parvovirus; details: 10 μM, SD6, 40 hpi, normalized to 0.1% DMSO-treated group
[6] = test system: CPV variant SD3 (New CPV-2b strain); assay: Western blot of VP2 expression, variant SD3; format: cell-based, Canine parvovirus; details: 10 μM, SD3, 40 hpi, normalized to 0.1% DMSO-treated group
CPV [7] = assay: Immunofluorescence assay (IFA) for VP2 protein in infected F81 cells; format: cell-based, Canine parvovirus; details: about 30 hpi
F81 cells [8] = assay: Caspase-Glo 3/7 assay in F81 cells with or without CPV infection; format: cell-based, Feline; details: 10 μM, with or without CPV infection, 4, 8, 12 and 24 hpi
[9] = test system: CPV variant BJ-1 (New CPV-2a strain); assay: Western blot of VP2 expression, variant BJ-1; format: cell-based, Canine parvovirus; details: 10 μM, BJ-1, 40 hpi, normalized to 0.1% DMSO-treated group
F81 cells [10] = assay: 50% cytotoxicity concentration (CC50) assay; format: cell-based, Feline
CPV SD6 = assay: Absolute quantitative PCR of CPV VP2 gene copies in infected F81 cells; format: cell-based, Canine parvovirus; details: 10 μM, 1 mL whole cell lysates, 40 hpi
[11] = F81 cells, 40 h incubation, read-out: CC50

For `CN1CCC(=C2c3ccccc3CCc3sccc32)CC1.O=C(O)CC(O)C(=O)O` [Pizotifen Malate], the “Percentage CPE inhibition (mean ± s.d.)” value [1] was 29.2 ± 2.72% and the “Percentage CPE inhibition (mean ± s.d.)” value (CPV [2]) was 26.48 ± 2.91%.

For `CCOC(=O)C1=C[C@@H](OC(CC)CC)[C@H](NC(C)=O)[C@@H](N)C1` [Oseltamivir], the “weight versus control group” value (CPV enteritis) is listed as “significant increase of weight”, the “white blood cell (WBC) count versus control group” value (CPV enteritis) is listed as “no changes” and the “anti-CPV effect on F81 cells” value [1] is listed as “no anti-CPV effects”. It also gave an inhibition at 10 µM ([1]; Canine parvovirus, read-out: Percentage CPE inhibition (mean ± s.d.)) of 2.13 ± 2.41%.

In the case of `Nc1ccn(C[C@@H](CO)OCP(=O)(O)O)c(=O)n1` [Cidofovir], the “anti-CPV effect on F81 cells” value [1] is reported as “no anti-CPV effects”.

In the case of `O=c1[nH]c(=O)n([C@H]2C[C@H](O)[C@@H](CO)O2)cc1C(F)(F)F` [Trifluridine], the EC50 (CPV [3]; Canine parvovirus) is reported as 9.35 µM and the CC50 at 40 h [4] is reported as greater than 160 µM.

For `Nc1nc(Cl)nc2c1ncn2[C@H]1C[C@H](O)[C@@H](CO)O1` [Cladribine], the EC50 (CPV [3]; Canine parvovirus) was 0.32 µM and the CC50 at 40 h ([4]; CC50) was 40.2 µM.

In the case of `Cc1cc(C(C#N)c2ccc(Cl)cc2)c(Cl)cc1NC(=O)c1cc(I)cc(I)c1[O-].[Na+]` (stereo not drawn) [Closantel Sodium], the EC50 (CPV [3]) is reported as 6.01 µM, the “relative expression of VP2” value [5] is reported as 22.50% and the “relative expression of VP2” value [6] is reported as 23.85%. For the same compound, the “CPV infection by IFA (VP2 staining)” value (CPV [7]; 5 μM) was “CPV infection could be inhibited”, the “CPV infection by IFA (VP2 staining)” value (CPV [7]; 10 μM) was “Few cells were CPV-positive” and the “CPV infection by IFA (VP2 staining)” value (CPV [7]; 20 μM) was “Almost no green signals were detected”. The “Percentage CPE inhibition (mean ± s.d.)” value [1] was 69.76 ± 6.06%, the “Percentage CPE inhibition (mean ± s.d.)” value (CPV [2]) was 58.14 ± 7.28% and the “pro- or antiapoptotic effect (Caspase 3/7 activity)” value (“pro- or antiapoptotic effect” below) (F81 cells [8]) was “no pro- or antiapoptotic effects”. The “relative expression of VP2” value [9] was 12.83%, the CC50 (F81 cells [10]) was 19.1 µM and the “CPV viral DNA copy numbers compared with the 0.1% DMSO-treated group” value (CPV SD6) was 24.04%.

For `CC(=O)Oc1ccccc1C(=O)Nc1ncc([N+](=O)[O-])s1` [Nitazoxanide], the EC50 (CPV [3]; Canine parvovirus) was 2.71 µM, the “CPV infection by IFA (VP2 staining)” value (CPV [7]; 5 μM) was “CPV infection could be inhibited” and the “CPV infection by IFA (VP2 staining)” value (CPV [7]; 10 μM) was “Few cells were CPV-positive”. The “CPV infection by IFA (VP2 staining)” value (CPV [7]; 20 μM) was “Almost no green signals were detected”, the “anti-CPV activity by time of drug addition” value (CPV [2]; drug added 3 h postinfection) was “anti-CPV activity of Nitazoxanide was observed” and the “pro- or antiapoptotic effect” value (F81 cells [8]) was “antiapoptotic effects were observed within 12 h”. The CC50 at 40 h [4, 11] was 21 µM and the “CPV viral DNA copy numbers compared with the 0.1% DMSO-treated group” value (CPV SD6) was 0.07%.

With `Nc1nc2[nH]cc(CCc3ccc(C(=O)N[C@@H](CCC(=O)[O-])C(=O)[O-])cc3)c2c(=O)[nH]1.Nc1nc2[nH]cc(CCc3ccc(C(=O)N[C@@H](CCC(=O)[O-])C(=O)[O-])cc3)c2c(=O)[nH]1.O.O.O.O.O.[Na+].[Na+].[Na+].[Na+]` [Pemetrexed Disodium Hydrate] the “Percentage CPE inhibition (mean ± s.d.)” value [1] was 26.56 ± 2.12% and the “Percentage CPE inhibition (mean ± s.d.)” value (CPV [2]) was 30.28 ± 5.74%.

With `Cc1cc(C(C#N)c2ccc(Cl)cc2)c(Cl)cc1NC(=O)c1cc(I)cc(I)c1O` (stereo not drawn) [Closantel] the EC50 (CPV [3]; Canine parvovirus) was 7.77 µM, the “relative expression of VP2” value [5] was 30.1% and the “relative expression of VP2” value [6] was 10.78%. For the same compound, the “CPV infection by IFA (VP2 staining)” value (CPV [7]; 5 μM) was “CPV infection could be inhibited”, the “CPV infection by IFA (VP2 staining)” value (CPV [7]; 10 μM) was “Few cells were CPV-positive” and the “CPV infection by IFA (VP2 staining)” value (CPV [7]; 20 μM) was “Almost no green signals were detected”. The “pro- or antiapoptotic effect” value (F81 cells [8]) was “no pro- or antiapoptotic effects”, the “relative expression of VP2” value [9] was 14.58% and the CC50 at 40 h [4] was 13.7 µM. For the same compound, the “CPV viral DNA copy numbers compared with the 0.1% DMSO-treated group” value (CPV SD6) was 20.83%.

In the case of `Nc1ccn([C@@H]2O[C@H](CO)[C@@H](O)C2(F)F)c(=O)n1` [Gemcitabine], the EC50 (CPV [3]) is reported as 0.62 µM, the “Percentage CPE inhibition (mean ± s.d.)” value (CPV [2]) is reported as 42.8 ± 6.13% and the CC50 (F81 cells [10]; [11]) is reported as 40 µM.

With `Nc1ccn([C@@H]2O[C@H](CO)[C@@H](O)C2(F)F)c(=O)n1` [Gemcitabine HCl] the EC50 (CPV [3]; Canine parvovirus) was 0.68 µM and the CC50 (F81 cells [10]; [11]) was 142 µM.

Reference: publication PMC6724046 (Viruses, 2019)
